We go through nine molecules from ChEMBL document CHEMBL5113515, “The Discovery of GSK3640254, a Next-Generation Inhibitor of HIV-1 Maturation” (J Med Chem, 2022).

Where only a bound is given, the exact number is not on record here.

Data set [1] can be described thus: Solubility of the compound in FeSSIF at pH 5.0. The class given is physicochemical.
The nature of data set [2]: Solubility of the compound in FaSSIF at pH 6.5. The data set is classed as physicochemical.
The nature of data set [3]: Aqueous solubility of compound at pH 1 to 8. The class given is physicochemical.
For the next data set, the system named is MT2. Kind of data set: Cytotoxicity in human MT2 cells assessed as reduction in cell viability. The data set is classed as functional.
The test system of data set [4] is Human immunodeficiency virus 1. Kind of data set: Antiviral activity against HIV1 wild type NL (4 to 3) infected in human MT2 cells measured after 4 to 5 days by dual-luciferase reporter assay. The data set is classed as functional, organism-based. Conditions: Human immunodeficiency virus 1, MT2.
In data set [5] the test system is Human immunodeficiency virus 1. Kind of data set: Antiviral activity against HIV1 harbouring deltaV370/T371A mutant infected in human MT2 cells measured after 4 to 5 days by dual-luciferase reporter assay. The data set is classed as functional, organism-based. Conditions: Human immunodeficiency virus 1, MT2.
Data set [6] deals with Human immunodeficiency virus 1. Put plainly: Antiviral activity against HIV1 harbouring T332S/V362I/prR41G mutant infected in human MT2 cells measured after 4 to 5 days by dual-luciferase reporter assay. The class given is functional, organism-based. Particulars: Human immunodeficiency virus 1, MT2.
The test system of data set [7] is Human immunodeficiency virus 1. Kind of data set: Antiviral activity against HIV1 wild type NL (4 to 3) infected in human MT2 cells measured after 4 to 5 days in presence of human serum by dual-luciferase reporter assay. The data set is classed as functional, organism-based. Particulars: Human immunodeficiency virus 1, MT2.
Data set [8] relates to Human immunodeficiency virus 1. Kind of data set: Antiviral activity against HIV1 harbouring V362I/V370A mutant infected in human MT2 cells measured after 4 to 5 days by dual-luciferase reporter assay. The class given is functional, organism-based. Particulars: Human immunodeficiency virus 1, MT2.
Data set [9] is described as follows: AUC in rat at 5 mg/kg, po. The data set is classed as ADME, organism-based. Particulars: in vivo, read-out: AUC. More on the design: dose 5 mg/kg, route po.
Data set [10] is described as follows: Volume of distribution at steady state in overnight fasted cynomolgus monkey at 2 mg/kg, po or 1 mg/kg, iv. The class given is ADME, organism-based, Macaca fascicularis. Particulars: in vivo.
In data set [11] the test system is Human immunodeficiency virus 1. Put plainly: Antiviral activity against HIV1 NL (4 to 3) harbouring V362I/deltaV370 mutant transfected in human HEK293T cells by dual-luciferase reporter assay. The class given is functional, organism-based. Particulars: Human immunodeficiency virus 1, HEK-293T.
A short description of data set [12]: AUC(0 to t) in overnight fasted mouse at 5 mg/kg, po or 1 mg/kg, iv. More on the design: dose 5 mg/kg, route po. The class given is ADME, organism-based. Particulars: in vivo.
Data set [13] can be described thus: Binding affinity to HIV1 wild type Gag assessed as dissociation constant. Also on record: species or system Human immunodeficiency virus 1.
A short description of data set [14]: Volume of distribution at steady state in overnight fasted Sprague-Dawley rat at 5 mg/kg, po or 1 mg/kg, iv. The data set is classed as ADME, organism-based. Conditions: in vivo.
Data set [15] in a line: AUC(0 to t) in overnight fasted Sprague-Dawley rat at 5 mg/kg, po or 1 mg/kg, iv. The class given is ADME, organism-based. Also on record: dose 5 mg/kg, route po. Conditions: in vivo.
A short description of data set [16]: Volume of distribution at steady state in overnight fasted Beagle dog at 2 mg/kg, po or 1 mg/kg, iv. The data set is classed as ADME, organism-based, Canis lupus familiaris. Conditions: in vivo.
Data set [17] relates to Human immunodeficiency virus 1. Put plainly: Antiviral activity against HIV1 virus harboring NL (4 to 3) harbouring […]/V370A mutant transfected in human HEK293T cells by luciferase reporter assay. The class given is functional, organism-based. Conditions: Human immunodeficiency virus 1, HEK-293T.
For data set [18], the system named is Human immunodeficiency virus 1. Kind of data set: Antiviral activity against HIV1 wild type subtype B NL (4 to 3) transfected in human HEK293T cells by dual-luciferase reporter assay. The class given is functional, organism-based. Particulars: Human immunodeficiency virus 1, HEK-293T.
Data set [19] relates to Human immunodeficiency virus 1. Kind of data set: Antiviral activity against HIV1 wild type subtype B NL (4 to 3) harbouring V362/Q369/V370/T371 transfected in human HEK293T cells by dual-luciferase reporter assay. The class given is functional, organism-based. Particulars: Human immunodeficiency virus 1, HEK-293T.
Data set [20] can be described thus: AUC(0 to t) in overnight fasted cynomolgus monkey at 2 mg/kg, po or 1 mg/kg, iv. The data set is classed as ADME, organism-based, Macaca fascicularis. Also on record: dose 2 mg/kg, route po. Particulars: in vivo.
For data set [21], the system named is Human immunodeficiency virus 1. Put plainly: Antiviral activity against HIV1 wild type subtype C NL (4 to 3) transfected in human HEK293T cells by dual-luciferase reporter assay. Particulars: Human immunodeficiency virus 1, HEK-293T. The class given is functional, organism-based.
Data set [22] is described as follows: Half life in overnight fasted Beagle dog at 1 mg/kg, iv. The class given is ADME, organism-based, Canis lupus familiaris. Conditions: in vivo.
Data set [23] in a line: Cmax in overnight fasted Beagle dog at 2 mg/kg, po or 1 mg/kg, iv. The class given is ADME, organism-based, Canis lupus familiaris. More on the design: dose 2 mg/kg, route po. Conditions: in vivo.
The nature of data set [24]: Oral bioavailability in overnight fasted Beagle dog using spray-dried dispersion at 2 mg/kg. The class given is ADME, organism-based, Canis lupus familiaris. Conditions: in vivo.
For data set [25], the system named is Human immunodeficiency virus 1. Put plainly: Binding affinity to HIV1 wild type Gag assessed as dissociation constant by measuring half life.
A short description of data set [26]: Cmax in overnight fasted cynomolgus monkey at 2 mg/kg, po or 1 mg/kg, iv. Conditions: in vivo. More on the design: dose 2 mg/kg, route po. The data set is classed as ADME, organism-based, Macaca fascicularis.
Data set [27] deals with Human immunodeficiency virus 1. Kind of data set: Antiviral activity against HIV1 NL (4 to 3) harbouring V362I mutant transfected in human HEK293T cells by dual-luciferase reporter assay. The class given is functional, organism-based. Particulars: Human immunodeficiency virus 1, HEK-293T.
The test system of data set [28] is Human immunodeficiency virus 1. Put plainly: Antiviral activity against HIV in plasma assessed log10 reduction of HIV RNA over 40 mg/kg, po measured after 11 days. The data set is classed as functional. Conditions: time 11 day.
Data set [29] can be described thus: Volume of distribution at steady state in overnight fasted mouse at 5 mg/kg, po or 1 mg/kg, iv. The data set is classed as ADME, organism-based. Particulars: in vivo.
Data set [30] is described as follows: AUC(0 to t) in overnight fasted Beagle dog at 2 mg/kg, po or 1 mg/kg, iv. The class given is ADME, organism-based, Canis lupus familiaris. Also on record: dose 2 mg/kg, route po. Conditions: in vivo.
Data set [31] can be described thus: Oral bioavailability in overnight fasted cynomolgus monkey using spray-dried dispersion at 2 mg/kg. The class given is ADME, organism-based, Macaca fascicularis. Conditions: in vivo.

For the molecule `C=C(C)[C@@H]1CC[C@]2(NCCN3CCS(=O)(=O)CC3)CC[C@]3(C)[C@H](CC[C@@H]4[C@@]5(C)CC=C(C6=CC[C@@](CF)(C(=O)O)CC6)C(C)(C)[C@@H]5CC[C@]43C)[C@@H]12.Cl.Cl`, the solubility in data set [1] is 800 µg/mL; in data set [2], 310 µg/mL; in data set [3] it was under 1 µg/mL.
Take `C=C(C)[C@@H]1CC[C@]2(NCCN3CCC(S(C)(=O)=O)CC3)CC[C@]3(C)[C@H](CC[C@@H]4[C@@]5(C)CC=C(C6=CCC(CCCO)(C(=O)O)CC6)C(C)(C)[C@@H]5CC[C@]43C)[C@@H]12` (stereo partly specified): the CC50 with MT2 stood at 12.4 µM. Also, the EC50 was found to be 2.6 nM in [4]; 2.9 nM in data set [5]; 7.9 nM in [6]; 16 nM in [7]; 3.2 nM in data set [8]. The AUC in [9] stood at 4.36 µM·h.
Take `C=C(C)[C@@H]1CC[C@]2(NCCN3CCC(S(C)(=O)=O)CC3)CC[C@]3(C)[C@H](CC[C@@H]4[C@@]5(C)CC=C(C6=CCC(CO)(C(=O)O)CC6)C(C)(C)[C@@H]5CC[C@]43C)[C@@H]12` (stereo partly specified): the CC50 in the data set on MT2 was found to be 9.47 µM. The EC50 in [4] came out at 1.1 nM; in data set [5], 1 nM; in [6], 4.6 nM; in data set [7], 12.6 nM; in [8] it was 1.2 nM. Moreover, the AUC in data set [9] is 2.37 µM·h.
Turning to `C=C(C)[C@@H]1CC[C@]2(NCCN3CCC(S(C)(=O)=O)CC3)CC[C@]3(C)[C@H](CC[C@@H]4[C@@]5(C)CC=C(C6=CCC(C(=O)O)(C(F)F)CC6)C(C)(C)[C@@H]5CC[C@]43C)[C@@H]12` (stereo partly specified), the CC50 with MT2 was 11 µM. Also, the EC50 in data set [4] came out at 1.9 nM; in [5] it was 1.3 nM; in [6] it was 6.6 nM; in data set [7], 12.7 nM; in [8], 2.5 nM. The AUC in data set [9] was determined as 17.9 µM·h.
`C=C(C)[C@@H]1CC[C@]2(NCCN3CCS(=O)(=O)CC3)CC[C@]3(C)[C@H](CC[C@@H]4[C@@]5(C)CC=C(C6=CC7C(C6)C7C(=O)O)C(C)(C)[C@@H]5CC[C@]43C)[C@@H]12` (stereo partly specified): the CC50 with MT2 stood at 6.4 µM. Further, the concentration for a half-maximal effect (EC50) in data set [4] amounted to 2.3 nM; in data set [5] it was 16.7 nM; in data set [6], 299 nM; in [7] it was 30.9 nM; in data set [8], 657 nM.
As to `C=C(C)[C@@H]1CC[C@]2(NCCN3CCC(S(C)(=O)=O)CC3)CC[C@]3(C)[C@H](CC[C@@H]4[C@@]5(C)CC=C(C6=CCC(CCO)(C(=O)O)CC6)C(C)(C)[C@@H]5CC[C@]43C)[C@@H]12` (stereo partly specified), the CC50 in the data set on MT2 turned out to be 4.9 µM. Also, the EC50 in data set [4] was determined as 3 nM; in [5], 3.7 nM; in data set [6] it was 10.1 nM; in data set [7] it was 154 nM; in [8] it was 2.2 nM. Further, in [9], the AUC was 0.591 µM·h.
`C=C(C)[C@@H]1CC[C@]2(NCCN3CCS(=O)(=O)CC3)CC[C@]3(C)[C@H](CC[C@@H]4[C@@]5(C)CC=C(c6ccc(C(=O)O)cc6)C(C)(C)[C@@H]5CC[C@]43C)[C@@H]12` [BMS-955176]: the Vdss came to 0.43 L/kg in data set [10], 1.1 L/kg in data set [14], 0.36 L/kg in data set [16] and 0.82 L/kg in data set [29]. Besides, in the data set on MT2, the CC50 turned out to be 13 µM. Further, the EC50 in [11] is 1400 nM; in [4], 5 nM; in [5] it was 6 nM; in [6] it was 704 nM; in [7] it was 10.2 nM; in [8], over 3000 nM. Further, the EC50 is over 3000 nM in data set [17]; 66 nM in [18]; 2.8 nM in [19]; 9.1 nM in data set [21]; 11.1 nM in data set [27]. The AUC(0-t) in data set [12] is 21.6 µM·h; in data set [15], 14.2 µM·h; in data set [20], 1 µM·h. In [13], the Kd stood at 1.4 nM. The half-life in data set [22] was 1900 min. In addition, the Cmax in data set [23] came to 600 nM; in [26], 100 nM. In [24], this molecule had an F of 9%. For the same molecule, the T1/2 in data set [25] came out at 0.717 h. Also, in data set [28], the Activity was over 1 log10IU/ml. In data set [30], this molecule gave an AUCt of 29.3 µM·h. Moreover, in [31], the bioavailability stood at 4%.
As to `C=C(C)[C@@H]1CC[C@]2(NCCN3CCS(=O)(=O)CC3)CC[C@]3(C)[C@H](CC[C@@H]4[C@@]5(C)CC=C(C6=CC7(C6)CC(C(=O)O)C7)C(C)(C)[C@@H]5CC[C@]43C)[C@@H]12` (stereo partly specified), in the data set on MT2, the CC50 came out at 10.7 µM. Moreover, the figures for the EC50 in data set [5], in data set [6] and in [8] were 5.8 nM, 363 nM and 48.5 nM, respectively. In addition, the AUC in [9] is 11.7 µM·h.
`C=C(C)[C@@H]1CC[C@]2(NCCN3CCS(=O)(=O)CC3)CC[C@]3(C)[C@H](CC[C@@H]4[C@@]5(C)CC=C(C6=CC[C@@](CF)(C(=O)O)CC6)C(C)(C)[C@@H]5CC[C@]43C)[C@@H]12`: the T1/2 in data set [25] came to 5.73 h.
